Reference: US20230203031A1, “COMPOUNDS USEFUL FOR INHIBITING CDK7” (Eli Lilly and Company, priority 2020, published 2023)
Like-named read-outs stand apart in the source and are kept apart here.

Assays:
[1] = test system: pCTD Ser5 in HCT116 cells; test: Phospho-carboxyl terminal domain (Ser5) p-CTD (S5) cell based Acumen assay; conditions: read-out: Relative IC50 for pCTD Ser5
Procedure: HCT116 cells (ATCC CCL-247) are cultured in McCoy’s 5A Medium Modified media supplemented with 10% FBS, 1% NaPyr, and 1% Pen/Strep and plated (prior to becoming 70% confluent) in 96-well flat-bottom plates at a density of 5,000 cells per well in 100 µL volume. The cells are incubated overnight in a cell culture incubator (5% CO2, 95% Relative Humidity (RH), and 37° C.) and allowed to attach to the plate. The following morning, the cells are dosed with compounds. Compound inhibitors are solubilized at 60 µM in culture medium containing 0.6% DMSO. Subsequently compound serial dilutions (1:3) are prepared over a 60 µM to 0.003 µM range. Cells are dosed with the addition of 50 µL from serial dilution plate to assay plate containing cell attached with 100 µL of media producing a final DMSO concentration of 0.2% with a final compound concentration dose range between 20 and 0.001 µM. For max point media containing 0.2% of DMSO is used and for min point, a reference compound diluted at 0.83 µM final concentration in the growth media containing 0.2% DMSO is used. After dosing with compounds, the cell plates are incubated at 37° C. and 5% CO2 for 4 hours. Growth media is removed carefully and the cells are fixed by adding 100 µL of 4% para-formaldehyde for 30 minutes at RT. Cell are washed once with PBS and incubated with 100 µL of cold MeOH for 15 minutes at RT for cell permeation. Again cells are washed twice with PBS (100 µL/each) and blocked with 100 µL/well of 1% BSA/PBS for 30 min at RT. 50 µL of 1:1000 primary antibody (Anti-phosphoCTD Ser5 Bethyl Laboratories cat# A300-655A) dilution in 1% BSA/PBS are added per well, the plates are sealed and incubated overnight at 4° C.
The following day cells are washed three times with PBS (100 µL/well) and incubated with 50 µL/well of secondary antibody (1:2000 dilution, Goat anti-rabbit IgM ALEXA FLUOR™ 488) in PBS for 1 hourr at room temperature. After washing 3× with PBS (100 µL/well), 100 µL, of 50 µg/mL RNAase (Sigma) and 1:1000 propidium iodide dilution in PBS are added per well. Plates are sealed and incubated for 1 hour at RT on the bench (preserved from light). Plates are analyzed on Acumen on FL2 (mean intensity), and FL3 (total intensity). Fluorescence plates are scanned with ACUMEN EXPLORER™ [Laser-scanning fluorescence microplate cytometer manufactured by TTP LABTECH LTD] to measure anti-phospho-carboxyl terminal domain at Serine 5 (pCTD). Image analysis is based on cellular fluorescent signals for identifying positive cells. pCTD (S5) positive cells are identified by mean intensity at 500-530 above the threshold. Total intensity at 575-640 from propidium iodide/DNA is used to identify individual cells. Assay output is % pCTD positive cells. The IC50 is determined by curve fitting to a four parameter logistic for each output using GENE DATA™.

CDK9/cyclinT1 = CDK9/cyclinT1 (Homo sapiens, UniProt P50750); test: Assay for inhibition of CDK9/CyclinT1 kinase activity (radiolabel filter binding); conditions: IC50 for CDK9 (3 hours preincubation), 100 µM ATP
CDK9/cyclinT1, sequence (P50750 whole entry): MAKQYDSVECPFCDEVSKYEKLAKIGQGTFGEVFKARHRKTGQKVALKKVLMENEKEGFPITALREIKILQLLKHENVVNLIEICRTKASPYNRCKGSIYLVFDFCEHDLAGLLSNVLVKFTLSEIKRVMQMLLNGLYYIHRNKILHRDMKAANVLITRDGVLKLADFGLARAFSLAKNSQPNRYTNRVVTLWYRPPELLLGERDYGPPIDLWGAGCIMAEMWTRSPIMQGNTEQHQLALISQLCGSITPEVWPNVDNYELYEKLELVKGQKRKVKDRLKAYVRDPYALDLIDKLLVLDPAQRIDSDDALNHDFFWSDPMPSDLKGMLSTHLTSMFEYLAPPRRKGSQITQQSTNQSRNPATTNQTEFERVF
CDK9/cyclinT1, sequence (O60563 whole entry partner): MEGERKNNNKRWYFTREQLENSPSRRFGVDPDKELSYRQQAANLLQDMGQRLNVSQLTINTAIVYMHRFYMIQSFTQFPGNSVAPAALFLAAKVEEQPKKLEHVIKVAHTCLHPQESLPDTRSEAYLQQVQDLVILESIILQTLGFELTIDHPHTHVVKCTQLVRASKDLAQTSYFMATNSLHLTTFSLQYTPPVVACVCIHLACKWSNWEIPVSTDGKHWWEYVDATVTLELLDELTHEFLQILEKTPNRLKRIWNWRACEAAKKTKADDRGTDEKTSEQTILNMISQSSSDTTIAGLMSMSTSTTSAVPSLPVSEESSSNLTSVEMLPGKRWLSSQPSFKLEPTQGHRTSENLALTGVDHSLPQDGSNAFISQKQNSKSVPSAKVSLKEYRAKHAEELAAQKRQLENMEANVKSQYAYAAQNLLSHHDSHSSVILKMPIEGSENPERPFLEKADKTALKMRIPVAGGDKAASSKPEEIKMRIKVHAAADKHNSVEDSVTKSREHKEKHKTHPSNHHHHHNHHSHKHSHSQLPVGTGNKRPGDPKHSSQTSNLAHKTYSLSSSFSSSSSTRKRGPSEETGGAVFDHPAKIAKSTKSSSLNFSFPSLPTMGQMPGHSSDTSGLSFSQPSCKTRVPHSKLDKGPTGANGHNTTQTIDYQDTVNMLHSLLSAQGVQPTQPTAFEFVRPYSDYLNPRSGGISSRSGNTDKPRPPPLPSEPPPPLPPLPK

HCC1806 = test: Cell proliferation assay (CELL TITER GLO), HCC1806; assay type: cell-based; conditions: Homo sapiens, 144 h; HCC1806 breast cancer, six days after compound addition
Procedure: Cell lines are plated at the density 5000 cells per well in 100 µL per well growth medium into a white 96-well cell culture plate. See Table 1 for cell line and culture medium information. Plates are incubated at 37° C. and 5% CO2. The following day, a serial dilution of the test compound is prepared by diluting the compound 1:3 in DMSO for 10 points. The DMSO plate is 1000X the final concentration. In addition to the CDK7 inhibitor, a DMSO alone column is included as a maximum growth control and 10 µM staurosporine final column is included as a maximum growth inhibition control. A 10X dilution plate is then prepared by adding 2 µL per well from the 1000X DMSO plate to 198 µL per well of OMEM (Life Technologies, Carlsbad, CA, cat#31985-070). Cells are treated with indicated compound by adding 11 µL per well from the 10X OMEM plate to the cell plate containing 100 µL per well growth medium for a 1X final concentration. Plates are placed back into the incubator at 37° C. and 5% CO2. Six or seven days after compound addition, for HCC1806 or A2780 cells respectively, plates are removed from the incubator and allowed to equilibrate to RT. […] After 15 minute incubation on shaker, luminescence is read, 1 second per well, using a Wallac VICTOR2™. […]

Row | Compound | IC50 ([1]; Homo sapiens, HCT-116, 4 h) | IC50 (CDK9/cyclinT1) | IC50 (HCC1806) | IC50 ([1]; 4 hours)
1 | [2H]CC([2H])(C)c1cnc2c(NC3CCN(C[C@@H]4CN(C(=O)C=C)CCO4)CC3)cc(C(F)(F)F)cn12 (mixture of isomers) [Example 7, 1-[(2R)-2-[[4-[[3-[rac-1,2-dideuterio-1-methyl-ethyl]-6-(trifluoromethyl)imidazo[1,2-a]pyridin-8-yl]amino]-1-piperidyl]methyl]morpholin-4-yl]prop-2-en-1-one] | 71.7 nM | 2030 nM |  | 
2 | C=CC(=O)N1CCO[C@H](CN2CCC(Nc3cc(C(C)F)cn4c(C(C)C)cnc34)CC2)C1 (single isomer, unassigned) [Example 2] |  | 3180 nM |  | 162 nM
3 | C=CC(=O)N1CCO[C@H](CN2CCC(Nc3cc(C(C)O)cn4c(C(C)C)cnc34)CC2)C1 (single isomer, unassigned) [Example 4] |  | 8050 nM |  | 55.1 nM
4 | C=CC(=O)N1CCO[C@H](CN2CCC(Nc3cc(C(C)O)cn4c(C(C)C)cnc34)CC2)C1 (single isomer, unassigned) [Example 5] |  | 7130 nM |  | 118 nM
5 | C=CC(=O)N1CCO[C@H](CN2CCC(Nc3cc(C(F)(F)F)cn4c(C(C)C)cnc34)CC2)C1 [Example 8, 1-[(2R)-2-[[4-[[3-isopropyl-6-(trifluoromethyl)imidazo[1,2-a]pyridin-8-yl]amino]-1-piperidyl]methyl]morpholin-4-yl]prop-2-en-1-one] | 26.2 nM | 2140 nM |  | 

Stronger by IC50 (CDK9/cyclinT1), values ahead:

Row | IC50 ([1]; Homo sapiens, HCT-116, 4 h) | IC50 (CDK9/cyclinT1) | IC50 (HCC1806) | IC50 ([1]; 4 hours) | Compound
6 | 161 nM | 1770 nM | 19.5 nM |  | C=CC(=O)N1CCO[C@H](CN2CCC(Nc3cc(C(C)F)cn4c(C(C)C)cnc34)CC2)C1 (single isomer, unassigned) [Example 1]
7 | 15.9 nM | 1610 nM |  |  | [2H]C([2H])=C([2H])C(=O)N1CCO[C@H](CN2CCC(Nc3cc(C(F)(F)F)cn4c(C(C)C)cnc34)CC2)C1 [Example 6, 2,3,3-trideuterio-1-[(2R)-2-[[4-[[3-isopropyl-6-(trifluoromethyl)imidazo[1,2-a]pyridin-8-yl]amino]-1-piperidyl]methyl]morpholin-4-yl]prop-2-en-1-one]
